From patent US8557800B2, “Sphingosine kinase inhibitors” (Apogee Biotechnology Corporation, priority 2005, dated 2013)

What was measured:
[1] = tested on: MCF-7 human breast adenocarcinoma cells; experiment: Cytotoxicity, SRB binding assay; assay type: cell-based; conditions: MCF7, inhibition of cell proliferation, 48 h, read-out: MCF-7 IC50
Description: To further assess the biological efficacies of the Compounds in intact cells, each Compound was evaluated for cytotoxicity using human cancer cell lines. These experiments followed methods that have been extensively used. Cell lines tested included MCF-7 human breast adenocarcinoma cells and MCF-10A non-transformed human breast epithelial cells. The indicated cell lines were treated with varying doses of the test Compound for 48 h. Cell survival was then determined using the SRB binding assay (Skehan et al., 1990, J Natl Cancer Inst 82: 1107), and the concentration of compound that inhibited proliferation by 50% (the IC50) was calculated. Values (in μM) represent the mean±sd for replicate trials.

recombinant human SK = experiment: Inhibition of recombinant human SK, LC/MS/MS assay; assay type: biochemical; conditions: 6 μg/ml compound
Description: SK activity is measured by incubation of the recombinant SK with [^3H]sphingosine and 1 mM ATP under defined conditions, followed by extraction of the assay mixture with chloroform:methanol under basic conditions. […] Radioactivity in aliquots of the aqueous phase is then quantified as a measure of [^3H]S1P formation.
In an alternate assay procedure, the recombinant human SK was incubated with unlabeled sphingosine and ATP as described above. After 30 minutes, the reactions were terminated by the addition of acetonitrile to directly extract the newly synthesized S1P. The amount of S1P in the samples is then quantified as follows. C17 base D-erythro-sphingosine and C17 SIP are used as internal standards for sphingosine and S1P, respectively. […] The lipids are then fractionation by High-Performance Liquid Chromatography using a C8-reverse phase column eluted with 1 mM methanolic ammonium formate/2 mM aqueous ammonium formate. […] Calibration curves are generated by plotting the peak area ratios of the synthetic standards for each sphingolipid, and used to determine the normalized amounts of sphingosine and S1P in the samples.
Each Compound of this invention was tested for its ability to inhibit recombinant SK using the LC/MS/MS assay described above.

Row | Structure (SMILES) | IC50 [1] [µM] | Recombinant SK (% inhibition) (recombinant human SK) [%]
1 | O=C(NC1CC1)C12CC3CC(C1)CC(c1ccc(Cl)cc1)(C3)C2 [Compound 2, 3-(4-Chloro-phenyl)-adamantane-1-carboxylic acid cyclopropylamide] | 20 | 0
2 | CCSCCNC(=O)C12CC3CC(C1)CC(c1ccc(Cl)cc1)(C3)C2 [Compound 3, 3-(4-Chloro-phenyl)-adamantane-1-carboxylic acid (2-ethylsulfanyl-ethyl)-amide] | 18 | 6
3 | CC(=O)Oc1ccc(NC(=O)C23CC4CC(C2)CC(c2ccc(Cl)cc2)(C4)C3)cc1 [Compound 7, Acetic acid 4-{[3-(4-chloro-phenyl)-adamantane-1-carbonyl]-amino}-phenyl ester] | 3 | 100
4 | CSc1ccc(CNC(=O)C23CC4CC(C2)CC(c2ccc(Cl)cc2)(C4)C3)cc1 [Compound 14, 3-(4-Chloro-phenyl)-adamantane-1-carboxylic acid 4-methylsulfanyl-benzylamide] | 36 | 19
5 | O=C(NCc1ccc(C(F)(F)F)cc1)C12CC3CC(C1)CC(c1ccc(Cl)cc1)(C3)C2 [Compound 16, 3-(4-Chloro-phenyl)-adamantane-1-carboxylic acid 4-trifluoromethyl-benzylamide] | 17 | 8
6 | O=C(NCc1cc(C(F)(F)F)cc(C(F)(F)F)c1)C12CC3CC(C1)CC(c1ccc(Cl)cc1)(C3)C2 [Compound 17, 3-(4-Chloro-phenyl)-adamantane-1-carboxylic acid 3,5-bis-trifluoromethyl-benzylamide] | 17 | 56
7 | O=C(NCc1cc(F)cc(C(F)(F)F)c1)C12CC3CC(C1)CC(c1ccc(Cl)cc1)(C3)C2 [Compound 18, 3-(4-Chloro-phenyl)-adamantane-1-carboxylic acid 3-fluoro-5-trifluoromethyl-benzylamide] | 19 | 0
8 | O=C(NCc1cc(F)cc(F)c1)C12CC3CC(C1)CC(c1ccc(Cl)cc1)(C3)C2 [Compound 20, 3-(4-Chloro-phenyl)-adamantane-1-carboxylic acid 3,5-difluoro-benzylamide] | 33 | 0
9 | O=C(NCc1ccc(F)c(F)c1)C12CC3CC(C1)CC(c1ccc(Cl)cc1)(C3)C2 [Compound 21, 3-(4-Chloro-phenyl)-adamantane-1-carboxylic acid 3,4-difluoro-benzylamide] | 27 | 65
10 | O=C(NCc1cc(F)c(F)c(F)c1)C12CC3CC(C1)CC(c1ccc(Cl)cc1)(C3)C2 [Compound 22, 3-(4-Chloro-phenyl)-adamantane-1-carboxylic acid 3,4,5-trifluoro-benzylamide] | 18 | 56
11 | O=C(NCc1ccc(F)c(Cl)c1)C12CC3CC(C1)CC(c1ccc(Cl)cc1)(C3)C2 [Compound 23, 3-(4-Chloro-phenyl)-adamantane-1-carboxylic acid 3-chloro-4-fluoro-benzylamide] | 23 | 0
12 | O=C(NCc1ccc(F)c(C(F)(F)F)c1)C12CC3CC(C1)CC(c1ccc(Cl)cc1)(C3)C2 [Compound 24, 3-(4-Chloro-phenyl)-adamantane-1-carboxylic acid 4-fluoro-3-trifluoromethyl-benzylamide] | 17 | 20
13 | O=C(NCc1ccc(F)cc1Cl)C12CC3CC(C1)CC(c1ccc(Cl)cc1)(C3)C2 [Compound 25, 3-(4-Chloro-phenyl)-adamantane-1-carboxylic acid 2-chloro-4-fluoro-benzylamide] | 87 | 47
14 | O=C(NCc1ccc(Cl)c(C(F)(F)F)c1)C12CC3CC(C1)CC(c1ccc(Cl)cc1)(C3)C2 [Compound 26, 3-(4-Chloro-phenyl)-adamantane-1-carboxylic acid 4-chloro-3-trifluoromethyl-benzylamide] | 19 | 36
15 | NCc1c(Cl)c(Cl)c(Cl)c(CNC(=O)C23CC4CC(C2)CC(c2ccc(Cl)cc2)(C4)C3)c1Cl [Compound 27, 3-(4-Chloro-phenyl)-adamantane-1-carboxylic acid 3-aminomethyl-2,4,5,6-tetrachloro-benzylamide] | 8 | 50
16 | CC(NC(=O)C12CC3CC(C1)CC(c1ccc(Cl)cc1)(C3)C2)c1ccc(Cl)cc1 (centres unmarked) [Compound 28, 3-(4-Chloro-phenyl)-adamantane-1-carboxylic acid [1-(4-chloro-phenyl)-ethyl]-amide] | 64 | 6

Row | Structure (SMILES) | IC50 [1] [µM] | Recombinant SK (% inhibition) (recombinant human SK) [%]
17 | CS(=O)(=O)c1ccc(CNC(=O)C23CC4CC(C2)CC(c2ccc(Cl)cc2)(C4)C3)cc1 [Compound 30, 3-(4-Chloro-phenyl)-adamantane-1-carboxylic acid 4-methanesulfonyl-benzylamide] | 14 | 1
18 | CN(C)c1ccc(CNC(=O)C23CC4CC(C2)CC(c2ccc(Cl)cc2)(C4)C3)cc1 [Compound 31, 3-(4-Chloro-phenyl)-adamantane-1-carboxylic acid 4-dimethylamino-benzylamide] | 74 | 74
19 | O=C(NCc1ccc(OC(F)(F)F)cc1)C12CC3CC(C1)CC(c1ccc(Cl)cc1)(C3)C2 [Compound 32, 3-(4-Chloro-phenyl)-adamantane-1-carboxylic acid 4-trifluoromethoxy-benzylamide] | 24 | 17
20 | O=C(NCc1cccc(OC(F)(F)F)c1)C12CC3CC(C1)CC(c1ccc(Cl)cc1)(C3)C2 [Compound 33, 3-(4-Chloro-phenyl)-adamantane-1-carboxylic acid 3-trifluoromethoxy-benzylamide] | 30 | 10
21 | O=C(NCc1ccc(Oc2ccccc2)cc1)C12CC3CC(C1)CC(c1ccc(Cl)cc1)(C3)C2 [Compound 34, 3-(4-Chloro-phenyl)-adamantane-1-carboxylic acid 4-phenoxy-benzylamide] | > 106 | 0
22 | O=C(NCc1ccc(O)c(O)c1)C12CC3CC(CC(C3)C1)C2 [Compound 35, Adamantane-1-carboxylic acid 3,4-dihydroxy-benzylamide] | 19 | 87
23 | COc1ccc(CCNC(=O)C23CC4CC(C2)CC(c2ccc(Cl)cc2)(C4)C3)cc1Br [Compound 42, 3-(4-Chloro-phenyl)-adamantane-1-carboxylic acid [2-(3-bromo-4-methoxy-phenyl)-ethyl]-amide] | > 100 | 5
24 | O=C(NCCc1ccc(O)c(O)c1)C12CC3CC(CC(C3)C1)C2 [Compound 43, Adamantane-1-carboxylic acid [2-(3,4-dihydroxy-phenyl)-ethyl]-amide] | 27 | 0
25 | O=C(NCCc1ccc2c(c1)OCO2)C12CC3CC(C1)CC(c1ccc(Cl)cc1)(C3)C2 [Compound 45, 3-(4-Chloro-phenyl)-adamantane-1-carboxylic acid (2-benzo[1,3]dioxol-5-yl-ethyl)-amide] | 17 | 64
26 | O=C(NCCc1cccc(Oc2ccccc2)c1)C12CC3CC(C1)CC(c1ccc(Cl)cc1)(C3)C2 [Compound 46, 3-(4-Chloro-phenyl)-adamantane-1-carboxylic acid [2-(3-phenoxy-phenyl)-ethyl]-amide] | 91 | 4
27 | O=C(NCCc1ccc(Oc2ccccc2)cc1)C12CC3CC(C1)CC(c1ccc(Cl)cc1)(C3)C2 [Compound 47, 3-(4-Chloro-phenyl)-adamantane-1-carboxylic acid [2-(4-phenoxy-phenyl)-ethyl]-amide] | 16 | 26
28 | O=C(NCc1ccc(-c2ccccc2)cc1)C12CC3CC(C1)CC(c1ccc(Cl)cc1)(C3)C2 [Compound 49, 3-(4-Chloro-phenyl)-adamantane-1-carboxylic acid (biphenyl-4-ylmethyl)-amide] | 68 | 33
29 | CN1CCC(NC(=O)C23CC4CC(CC(C4)C2)C3)CC1 [Compound 50, Adamantane-1-carboxylic acid (1-methyl-piperidin-4-yl)-amide] | 181 | 0
30 | CC(C)(C)NCCCNC(=O)C12CC3CC(C1)CC(c1ccc(Cl)cc1)(C3)C2 [Compound 53, 3-(4-Chloro-phenyl)-adamantane-1-carboxylic acid (3-tert-butylamino-propyl)-amide] | 11 | 52
31 | O=C(NCCCN1CCCC1)C12CC3CC(C1)CC(c1ccc(Cl)cc1)(C3)C2 [Compound 54, 3-(4-Chloro-phenyl)-adamantane-1-carboxylic acid (3-pyrrolidin-1-yl-propyl)-amide] | 11 | 95
